Test results as given in patent US9227935B2, “Piperidine/piperazine derivatives” (Janssen Pharmaceutica N.V., priority 2007, dated 2016).

biological target: T1, human DGAT1 (Homo sapiens, UniProt O75907); experiment: DGAT1 FlashPlate inhibition assay with DGAT1 membrane preparations; assay type: biochemical; conditions: IC50 values expressed in M; pIC50 = -logIC50; inhibition of DGAT1 activity
T1 construct: FLAG (N); made in house; host or cells: SF9 insect cells (baculovirus, pFastBac); total cell membranes used as the enzyme source
T1 sequence (O75907 1-488): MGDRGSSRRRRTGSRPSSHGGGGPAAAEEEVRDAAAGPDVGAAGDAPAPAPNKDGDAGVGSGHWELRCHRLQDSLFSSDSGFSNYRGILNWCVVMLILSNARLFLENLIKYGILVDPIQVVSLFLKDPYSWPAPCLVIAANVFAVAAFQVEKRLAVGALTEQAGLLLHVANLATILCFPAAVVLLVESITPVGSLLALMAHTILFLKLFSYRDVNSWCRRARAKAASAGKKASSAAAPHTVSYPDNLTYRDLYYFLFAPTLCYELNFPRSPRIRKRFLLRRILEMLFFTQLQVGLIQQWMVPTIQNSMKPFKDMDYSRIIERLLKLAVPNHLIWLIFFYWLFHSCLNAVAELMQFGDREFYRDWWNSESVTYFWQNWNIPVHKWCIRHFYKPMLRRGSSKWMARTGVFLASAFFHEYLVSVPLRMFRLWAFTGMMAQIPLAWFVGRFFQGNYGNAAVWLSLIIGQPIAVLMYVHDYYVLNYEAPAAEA
Text: The inhibiting activity of the present compounds on DGAT1 activity was screened in a single well procedure assay using DGAT1 comprising membrane preparations and DGAT1 substrate comprising micelles and determining formed radio-active triacylglycerol coming in close proximity of a flashplate surface by radioluminescence.
Said assay is described in full detail in WO2006/067071, the content of which is incorporated herein by reference.
By DGAT1 activity is meant the transfer of coenzyme A activated fatty acids to the 3-position of 1,2-diacylglycerols, thus forming a triglyceride molecule, by enzyme DGAT1.
human DGAT1 (NM012079.2) was cloned into the pFastBac vector, containing translation start, a FLAG-tag at the N-terminus as described in literature and a viral Kozak sequence (AAX) preceding the ATG to improve expression in insect cells. Expression was done as described in literature (Cases, S., Smith, S. J., Zheng, Y., Myers H. M., Lear, S. R., Sande, E., Novak, S., Collins, C., Welch, C. B., Lusis, A. J., Erickson, S. K. and Farese, R. V. (1998) Proc. Natl. Acad. Sci. USA 95, 13018-13023.) using SF9 cells.
72 h transfected SF9 cells were collected by centrifugation (13000 rpm-15 min-4° C.) and lysed in 2×500 ml lysis buffer (0.1M Sucrose, 50 mM KCl, 40 mM KH2PO4, 30 mM EDTA pH 7.2. Cells were homogenized by cell disruptor. After centrifugation 1380 rpm-15 min-4° C. (SN discarded), pellet was resuspended in 500 ml lysis buffer and total cell membranes collected by ultracentrifugation at 34000 rpm (100 000 g) for 60 min (4° C.). The collected membranes were resuspended in lysis buffer, divided in aliquots and stored with 10% glycerol at −80° C. until use.
Add 1 ml dioleoyl-sn-glycerol (10 mg/ml) to 10 ml of L-α-phosphatidylcholine (1 mg/ml) and 10 ml of L-α-phosphatidyl-L-serine (1 mg/ml) in a thick glass recipient. Evaporate under nitrogen and put on ice for 15 minutes. Reconstitute in 10 ml Tris/HCl (10 mM, pH 7.4) by sonication on ice. The sonification process consists of sonification cycles of 10 seconds in the sonification bath followed by 10 seconds cool down on ice and repeating this sonification cycle till a homogeneous solution is obtained (takes about 15 minutes). The thus obtained micelles are stored at −20° C. till later use and contain DAG at a final concentration of 1.61 mM.
• 50 mM Tris-HCl (pH 7.4), 150 mM MgCl2, 1 mM EDTA, 0.2% BSA. b) N-ethylmaleimide, 5M • Dissolve 5 g into a final volume of 8 ml DMSO 100% and store at −20° C. in aliquots till later use. c) Substrate mix (for 1 384 well plate=3840 μl) • 612 μl micelles stock (51 μM final) • 16.6 μl oleoylCoA 9.7 mM • 23 μl [^3H]-oleoylCoA (49 Ci/mmol, 500 μCi/ml) • 3188.4 μl Tris pH 7.4, 10 mM d) Enzyme mix (for 1 384 well plate=3520 μl) (5 μg/ml) • Add 11.73 μl of DGAT membrane stock (1500 μg/ml stock) to 3508 μl assay buffer. e) Stop mix (for 1 384 well plate=7.68 ml) (250 mM) • Add 384 μl of N-ethylmaleimide (5M) to 3.456 ml DMSO 100%, and further dilute 3.84 ml of said solution with 3.84 ml DMSO 10%. Method
DGAT activity in membrane preparations was assayed in 50 mM Tris-HCl (pH 7.4), 150 mM MgCl2, 1 mM EDTA and 0.2% BSA, containing 50 μM DAG, […] PC/PS and 8.4 μM [^3H]-oleoylCoA (at a specific activity of 30 nCi/well) in a final volume of 50 μl in 384-well format using the red shifted Basic Image FlashPlate™ (Perkin Elmer Cat. No. SMP400).
In detail, 10 μl enzyme mix and 10 μl substrate mix were added to 30 μl of assay buffer, optionally in the presence of 1 μl DMSO (blank and controls) or 1 μl of the compound to be tested. This reaction mixture was incubated for 120 minutes at 37° C. and the enzymatic reaction stopped by adding 20 μl of the stop mix. The plates were sealed and the vesicles allowed to settle overnight at room temperature. Plates were centrifuged for 5 minutes at 1500 rpm and measured in Leadseeker. […]

SMILES	IC50 [nM]
O=C(Nc1ccc(C2CCN(C(=O)Nc3c(Cl)cccc3Cl)CC2)cc1)C1CNC1 [Compound 46]	2400
O=C(Nc1ccc(C2CCN(C(=O)Nc3c(Cl)cccc3Cl)CC2)cc1)C1CC(O)CN1 (stereo not drawn) [Compound 47]	5370
O=C(Nc1ccc(C2CCN(C(=O)Nc3c(Cl)cccc3Cl)CC2)cc1)C1CSCN1 (stereo not drawn) [Compound 48]	3550
O=C(Nc1ccc(C2CCN(C(=O)Nc3c(Cl)cccc3Cl)CC2)cc1)C1CCCNC1 (stereo not drawn) [Compound 49]	8910
CC(C)(C)OC(=O)N1CSCC1C(=O)Nc1ccc(C2CCN(C(=O)Nc3c(Cl)cccc3Cl)CC2)cc1 (stereo not drawn) [Compound 50]	295
CC(C)(C)OC(=O)N1CCCC1C(=O)Nc1ccc(C2CCN(C(=O)Nc3c(Cl)cccc3Cl)CC2)cc1 (stereo not drawn) [Compound 51]	490
CC(C)(C)OC(=O)N1CCCC(C(=O)Nc2ccc(C3CCN(C(=O)Nc4c(Cl)cccc4Cl)CC3)cc2)C1 (stereo not drawn) [Compound 52]	17.4
Cc1nc(C(=O)Nc2ccc(C3CCN(C(=O)Nc4c(Cl)cccc4Cl)CC3)cc2)c(-c2cccc(C(F)(F)F)c2)s1 [Compound 53]	1480
CCc1nc(C)c(-c2ccccc2C(=O)Nc2ccc(C3CCN(C(=O)Nc4c(Cl)cccc4Cl)CC3)cc2)s1 [Compound 55]	26.3
O=C(Nc1ccc(C2CCN(C(=O)Nc3c(Cl)cccc3Cl)CC2)cc1)c1ccccc1-c1ccccc1 [Compound 56]	331
O=C(Nc1ccc(C2CCN(C(=O)Nc3c(Cl)cccc3Cl)CC2)cc1)c1ccccc1-c1ccc(Cl)cc1 [Compound 57]	646
Cc1ccc(C(=O)Nc2ccc(C3CCN(C(=O)Nc4c(Cl)cccc4Cl)CC3)cc2)c(-c2ccc(C(F)(F)F)cc2)c1 [Compound 58]	355
Cc1cccc(C(=O)Nc2ccc(C3CCN(C(=O)Nc4c(Cl)cccc4Cl)CC3)cc2)c1-c1ccc(C(F)(F)F)cc1 [Compound 59]	2040
Cc1ccccc1-c1cccc(C(=O)Nc2ccc(C3CCN(C(=O)Nc4c(Cl)cccc4Cl)CC3)cc2)c1 [Compound 60]	17.4
CC(C)c1ccc(-c2ccccc2C(=O)Nc2ccc(C3CCN(C(=O)Nc4c(Cl)cccc4Cl)CC3)cc2)cc1 [Compound 61]	427
CC(C)(C)c1ccc(-c2ccccc2C(=O)Nc2ccc(C3CCN(C(=O)Nc4c(Cl)cccc4Cl)CC3)cc2)cc1 [Compound 62]	550
O=C(Nc1ccc(C2CCN(C(=O)Nc3c(Cl)cccc3Cl)CC2)cc1)c1cccc2c1-c1ccccc1C2=O [Compound 63]	120
Cc1ccc2c(c1)C(=O)c1cc(C)cc(C(=O)Nc3ccc(C4CCN(C(=O)Nc5c(Cl)cccc5Cl)CC4)cc3)c1-2 [Compound 64]	132
Cc1nc(C(=O)Nc2ccc(N3CCN(C(=O)Nc4c(Cl)cccc4Cl)CC3)cc2)c(-c2cccc(C(F)(F)F)c2)s1 [Compound 65]	204
Cc1ccc(C(=O)Nc2ccc(N3CCN(C(=O)Nc4c(Cl)cccc4Cl)CC3)cc2)c(-c2ccc(C(F)(F)F)cc2)c1 [Compound 66]	58.9
Cc1ccc2c(c1)C(=O)c1cc(C)cc(C(=O)Nc3ccc(N4CCN(C(=O)Nc5c(Cl)cccc5Cl)CC4)cc3)c1-2 [Compound 67]	148

SMILES	IC50 [nM]
O=C(Nc1ccc(N2CCN(C(=S)Nc3ccc(Cl)cc3Cl)CC2)cc1)c1ccccc1-c1ccc(C(F)(F)F)cc1 [Compound 68]	7240
CC(C)(C)NC(=O)N1CCN(c2ccc(NC(=O)c3ccccc3-c3ccc(C(F)(F)F)cc3)cc2)CC1 [Compound 69]	7940
O=C(Nc1ccc(N2CCN(C(=O)NCc3ccccc3)CC2)cc1)c1ccccc1-c1ccc(C(F)(F)F)cc1 [Compound 70]	5500
O=C(Nc1ccc(N2CCN(C(=O)NCCCc3ccccc3)CC2)cc1)c1ccccc1-c1ccc(C(F)(F)F)cc1 [Compound 71]	3550
CCOC(=O)c1ccc(NC(=O)N2CCN(c3ccc(NC(=O)c4ccccc4-c4ccc(C(F)(F)F)cc4)cc3)CC2)cc1 [Compound 72]	7760
CN(C)c1ccc(NC(=O)N2CCN(c3ccc(NC(=O)c4ccccc4-c4ccc(C(F)(F)F)cc4)cc3)CC2)cc1 [Compound 73]	3550
Cc1ccccc1NC(=O)N1CCN(c2ccc(NC(=O)c3ccccc3-c3ccc(C(F)(F)F)cc3)cc2)CC1 [Compound 74]	1100
CCc1ccccc1NC(=O)N1CCN(c2ccc(NC(=O)c3ccccc3-c3ccc(C(F)(F)F)cc3)cc2)CC1 [Compound 75]	2140
CCCc1ccccc1NC(=O)N1CCN(c2ccc(NC(=O)c3ccccc3-c3ccc(C(F)(F)F)cc3)cc2)CC1 [Compound 76]	7590
CC(C)c1ccccc1NC(=O)N1CCN(c2ccc(NC(=O)c3ccccc3-c3ccc(C(F)(F)F)cc3)cc2)CC1 [Compound 77]	4470
CC(C)(C)c1ccccc1NC(=O)N1CCN(c2ccc(NC(=O)c3ccccc3-c3ccc(C(F)(F)F)cc3)cc2)CC1 [Compound 78]	7590
CCC(C)c1ccccc1NC(=O)N1CCN(c2ccc(NC(=O)c3ccccc3-c3ccc(C(F)(F)F)cc3)cc2)CC1 (stereo not drawn) [Compound 79]	6460
COc1ccccc1NC(=O)N1CCN(c2ccc(NC(=O)c3ccccc3-c3ccc(C(F)(F)F)cc3)cc2)CC1 [Compound 80]	5500
CCOc1ccccc1NC(=O)N1CCN(c2ccc(NC(=O)c3ccccc3-c3ccc(C(F)(F)F)cc3)cc2)CC1 [Compound 81]	8130
Cc1cccc(C)c1NC(=O)N1CCN(c2ccc(NC(=O)c3ccccc3-c3ccc(C(F)(F)F)cc3)cc2)CC1 [Compound 82]	269
CCc1cccc(C)c1NC(=O)N1CCN(c2ccc(NC(=O)c3ccccc3-c3ccc(C(F)(F)F)cc3)cc2)CC1 [Compound 83]	1550
COc1cccc(OC)c1NC(=O)N1CCN(c2ccc(NC(=O)c3ccccc3-c3ccc(C(F)(F)F)cc3)cc2)CC1 [Compound 84]	5250
Cc1cc(C)c(NC(=O)N2CCN(c3ccc(NC(=O)c4ccccc4-c4ccc(C(F)(F)F)cc4)cc3)CC2)c(C)c1 [Compound 85]	178
COC(=O)c1ccccc1NC(=O)N1CCN(c2ccc(NC(=O)c3ccccc3-c3ccc(C(F)(F)F)cc3)cc2)CC1 [Compound 86]	9770
CCOC(=O)c1ccccc1NC(=O)N1CCN(c2ccc(NC(=O)c3ccccc3-c3ccc(C(F)(F)F)cc3)cc2)CC1 [Compound 87]	7410
O=C(Nc1ccc(N2CCN(C(=O)Nc3ccccc3Br)CC2)cc1)c1ccccc1-c1ccc(C(F)(F)F)cc1 [Compound 88]	1380
